Assay results from ChEMBL document CHEMBL3046521, “Synthesis and antitumor activity of (4-hydroxyphenyl)[5-substituted alkyl/aryl)-2-thioxo-1,3,4-thiadiazol-3-yl]methanone and [(3,4-disubstituted)-1,3-thiazol-2ylidene]-4-hydroxybenzohydrazide” (2011).

Tests used:
Type in all cases: functional
RXF 393 = assay: Cytotoxicity against Homo sapiens (human) RXF393 cells after 48 hr by sulforhodamine B assay; conditions: RXF 393, 48 h
SK-MEL-5 = assay: Cytotoxicity against Homo sapiens (human) SK-MEL-5 cells after 48 hr by sulforhodamine B assay; conditions: SK-MEL-5, 48 h
NCI-H460 = assay: Cytotoxicity against Homo sapiens (human) NCI-H460 cells after 48 hr by sulforhodamine B assay; conditions: NCI-H460, 48 h
K562 = assay: Cytotoxicity against Homo sapiens (human) K562 cells after 48 hr by sulforhodamine B assay; conditions: K562, 48 h
SK-MEL-2 = assay: Cytotoxicity against Homo sapiens (human) SK-MEL-2 cells after 48 hr by sulforhodamine B assay; conditions: SK-MEL-2, 48 h
UO-31 = assay: Cytotoxicity against Homo sapiens (human) UO31 cells after 48 hr by sulforhodamine B assay; conditions: UO-31, 48 h
ACHN = assay: Cytotoxicity against Homo sapiens (human) ACHN cells after 48 hr by sulforhodamine B assay
MDA-MB-468 = assay: Cytotoxicity against Homo sapiens (human) MDA-MB-468 cells after 48 hr by sulforhodamine B assay; conditions: MDA-MB-468, 48 h
SNB-75 = assay: Cytotoxicity against Homo sapiens (human) SNB75 cells after 48 hr by sulforhodamine B assay; conditions: SNB-75, 48 h
IGROV-1 = assay: Cytotoxicity against Homo sapiens (human) IGROV1 cells after 48 hr by sulforhodamine B assay; conditions: IGROV-1, 48 h
SK-OV-3 = assay: Cytotoxicity against Homo sapiens (human) SKOV3 cells after 48 hr by sulforhodamine B assay; conditions: SK-OV-3, 48 h
U-251 = assay: Cytotoxicity against Homo sapiens (human) U251 cells after 48 hr by sulforhodamine B assay; conditions: U-251, 48 h
HCC 2998 = assay: Cytotoxicity against Homo sapiens (human) HCC2998 cells after 48 hr by sulforhodamine B assay; conditions: HCC 2998, 48 h
NCI-H226 = assay: Cytotoxicity against Homo sapiens (human) NCI-H226 cells after 48 hr by sulforhodamine B assay; conditions: NCI-H226, 48 h
Hs-578T = assay: Cytotoxicity against Homo sapiens (human) Hs 578T cells after 48 hr by sulforhodamine B assay
DU-145 = assay: Cytotoxicity against Homo sapiens (human) DU145 cells after 48 hr by sulforhodamine B assay; conditions: DU-145, 48 h
NCI-H23 = assay: Cytotoxicity against Homo sapiens (human) NCI-H23 cells after 48 hr by sulforhodamine B assay; conditions: NCI-H23, 48 h
LOX IMVI = assay: Anticancer activity in Homo sapiens (human) LOXIMVI cells assessed as cell growth at 10^-5 M after 48 hr by SRB assay; conditions: read-out: Activity
HOP-62 = assay: Cytotoxicity against Homo sapiens (human) HOP62 cells after 48 hr by sulforhodamine B assay; conditions: HOP-62, 48 h
Malme-3M = assay: Cytotoxicity against Homo sapiens (human) MALME-3M cells after 48 hr by sulforhodamine B assay
OVCAR-5 = assay: Cytotoxicity against Homo sapiens (human) OVCAR5 cells after 48 hr by sulforhodamine B assay; conditions: OVCAR-5, 48 h
OVCAR-3 = assay: Cytotoxicity against Homo sapiens (human) OVCAR3 cells after 48 hr by sulforhodamine B assay; conditions: OVCAR-3, 48 h
HL-60(TB) = assay: Cytotoxicity against Homo sapiens (human) HL-60(TB) cells after 48 hr by sulforhodamine B assay; conditions: HL-60, 48 h
MDA-MB-231 = assay: Cytotoxicity against Homo sapiens (human) MDA-MB-231 cells after 48 hr by sulforhodamine B assay; conditions: MDA-MB-231, 48 h
CCRF-CEM = assay: Cytotoxicity against Homo sapiens (human) CCRF-CEM cells after 48 hr by sulforhodamine B assay
NCI-H522 = assay: Cytotoxicity against Homo sapiens (human) NCI-H522 cells after 48 hr by sulforhodamine B assay; conditions: NCI-H522, 48 h
SN12C = assay: Cytotoxicity against Homo sapiens (human) SN12C cells after 48 hr by sulforhodamine B assay
COLO 205 = assay: Cytotoxicity against Homo sapiens (human) COLO205 cells after 48 hr by sulforhodamine B assay; conditions: COLO 205, 48 h
T47D = assay: Cytotoxicity against Homo sapiens (human) T47D cells after 48 hr by sulforhodamine B assay

`COc1ccc(-c2cs/c(=N\NC(=O)c3ccc(O)cc3)n2-c2ccc(OC)cc2OC)cc1` showed a GI50 (RXF 393) of 5.37 µM, an LC50 (RXF 393) of over 100 µM and a TGI (RXF 393; read-out: pTGI (converted)) of over 100 µM. The GI50 (SK-MEL-5) was 5.37 µM, the LC50 (SK-MEL-5) was 52.5 µM and the TGI (SK-MEL-5; read-out: pTGI (converted)) was 19.5 µM. For the same compound, the GI50 (NCI-H460) was 3.02 µM, the LC50 (NCI-H460) was over 100 µM and the TGI (NCI-H460; read-out: pTGI (converted)) was 13.5 µM. It also gave a GI50 (K562) of 2.19 µM, an LC50 (K562) of over 100 µM and a TGI (K562; read-out: pTGI (converted)) of over 100 µM. For the same compound, the GI50 (SK-MEL-2) was 4.9 µM, the LC50 (SK-MEL-2) was over 100 µM and the TGI (SK-MEL-2; read-out: pTGI (converted)) was 72.4 µM. The GI50 (UO-31) was 4.68 µM, the LC50 (UO-31) was over 100 µM and the TGI (UO-31; read-out: pTGI) was over 100 µM. The GI50 (ACHN) was 4.79 µM, the LC50 (ACHN) was over 100 µM and the TGI (ACHN; read-out: pTGI (converted)) was over 100 µM. The GI50 (MDA-MB-468) was 3.89 µM, the LC50 (MDA-MB-468) was over 100 µM and the TGI (MDA-MB-468; read-out: pTGI (converted)) was over 100 µM. It also gave a GI50 (SNB-75) of 22.9 µM, an LC50 (SNB-75) of over 100 µM and a TGI (SNB-75; read-out: pTGI (converted)) of over 100 µM. The GI50 (IGROV-1) was 7.94 µM, the LC50 (IGROV-1) was over 100 µM and the TGI (IGROV-1; read-out: pTGI (converted)) was over 100 µM. The GI50 (SK-OV-3) was 15.1 µM, the LC50 (SK-OV-3) was over 100 µM and the TGI (SK-OV-3; read-out: pTGI (converted)) was 100 µM. It also gave a GI50 (U-251) of 4.47 µM, an LC50 (U-251) of 93.3 µM and a TGI (U-251; read-out: pTGI (converted)) of 89.1 µM. It also gave a GI50 (HCC 2998) of 1.95 µM, an LC50 (HCC 2998) of 53.7 µM and a TGI (HCC 2998; read-out: pTGI (converted)) of 5.25 µM. It also gave a GI50 (NCI-H226) of 4.27 µM, an LC50 (NCI-H226) of over 100 µM and a TGI (NCI-H226; read-out: pTGI (converted)) of over 100 µM. For the same compound, the GI50 (Hs-578T) was 6.92 µM, the LC50 (Hs-578T) was over 100 µM and the TGI (Hs-578T; read-out: pTGI (converted)) was 53.7 µM. It also gave a GI50 (DU-145) of 8.13 µM, an LC50 (DU-145) of over 100 µM and a TGI (DU-145; read-out: pTGI (converted)) of 40.7 µM. The GI50 (NCI-H23) was 11 µM, the LC50 (NCI-H23) was over 100 µM and the TGI (NCI-H23; read-out: pTGI (converted)) was over 100 µM. The growth at 10 µM (LOX IMVI) was 58.3%, the GI50 (HOP-62) was 2.95 µM and the LC50 (HOP-62) was 49 µM. The TGI (HOP-62; read-out: pTGI (converted)) was 7.59 µM, the GI50 (Malme-3M) was 5.37 µM and the LC50 (Malme-3M) was over 100 µM. The TGI (Malme-3M; read-out: pTGI (converted)) was 64.6 µM, the GI50 (OVCAR-5) was 6.92 µM and the LC50 (OVCAR-5) was over 100 µM. The TGI (OVCAR-5; read-out: pTGI (converted)) was 38 µM, the GI50 (OVCAR-3) was 3.8 µM and the LC50 (OVCAR-3) was 95.5 µM. The TGI (OVCAR-3; read-out: pTGI (converted)) was 17 µM, the GI50 (HL-60(TB)) was 3.02 µM and the CC50 (HL-60(TB); read-out: pLC50 (the source's name) (converted)) was over 100 µM. It also gave a TGI (HL-60(TB); read-out: pTGI (converted)) of 38 µM, a GI50 (MDA-MB-231) of 3.16 µM and an LC50 (MDA-MB-231) of over 100 µM. The TGI (MDA-MB-231; read-out: pTGI (converted)) was 20 µM, the GI50 (CCRF-CEM) was 9.77 µM and the LC50 (CCRF-CEM) was over 100 µM. It also gave a TGI (CCRF-CEM; read-out: pTGI) of over 100 µM, a GI50 (NCI-H522) of 2.57 µM and an LC50 (NCI-H522) of over 100 µM. It also gave a TGI (NCI-H522; read-out: pTGI (converted)) of 20 µM, a GI50 (SN12C) of 6.61 µM and an LC50 (SN12C) of over 100 µM. It also gave a TGI (SN12C; read-out: pTGI (converted)) of 57.5 µM, a GI50 (COLO 205) of 4.47 µM and an LC50 (COLO 205) of 79.4 µM. It also gave a TGI (COLO 205; read-out: pTGI (converted)) of 20.9 µM, a GI50 (T47D) of 5.13 µM and an LC50 (T47D) of over 100 µM. It also gave a TGI (T47D; read-out: pTGI (converted)) of 79.4 µM.
